PubChem BioAssay (NCI)
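96-well plates; 48 h exposure; 5 concentrations. Endpoints by linear interpolation between flanking doses. Not reached: highest tested concentration assigned. TGI marks complete inhibition of growth.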

What was measured:
Test in all cases: growth of human tumour cells (NCI), 48 h
HCT-116 colon = test system: HCT-116 colon
RPMI-8226 leukemia = test system: RPMI-8226 leukemia
NCI-H226 lung = test system: NCI-H226 lung
MDA-MB-435 = test system: MDA-MB-435
KM12 colon = test system: KM12 colon
786-0 renal = test system: 786-0 renal
U251 CNS = test system: U251 CNS
SK-MEL-2 melanoma = test system: SK-MEL-2 melanoma
A498 renal = test system: A498 renal
MDA-N = test system: MDA-N
HL-60(TB) leukemia = test system: HL-60(TB) leukemia
HT29 colon = test system: HT29 colon
OVCAR-3 ovarian = test system: OVCAR-3 ovarian
HS 578T breast = test system: HS 578T breast
UACC-257 melanoma = test system: UACC-257 melanoma
DU-145 prostate = test system: DU-145 prostate
ACHN renal = test system: ACHN renal
MDA-MB-231 breast = test system: MDA-MB-231 breast
SF-295 CNS = test system: SF-295 CNS
HOP-62 NSCLC = test system: HOP-62 NSCLC
LOX IMVI melanoma = test system: LOX IMVI melanoma
NCI-H460 lung = test system: NCI-H460 lung
OVCAR-5 ovarian = test system: OVCAR-5 ovarian
PC-3 prostate = test system: PC-3 prostate
NCI-H23 lung = test system: NCI-H23 lung
UO-31 renal = test system: UO-31 renal
IGROV1 ovarian = test system: IGROV1 ovarian
COLO 205 colon = test system: COLO 205 colon
TK-10 renal = test system: TK-10 renal
MOLT-4 leukemia = test system: MOLT-4 leukemia
UACC-62 melanoma = test system: UACC-62 melanoma
HOP-92 NSCLC = test system: HOP-92 NSCLC
NCI/ADR-RES ovarian = test system: NCI/ADR-RES ovarian
MCF7 breast = test system: MCF7 breast
MALME-3M melanoma = test system: MALME-3M melanoma
T-47D breast = test system: T-47D breast
CCRF-CEM leukemia = test system: CCRF-CEM leukemia
BT-549 breast = test system: BT-549 breast
M14 melanoma = test system: M14 melanoma
SF-268 CNS = test system: SF-268 CNS
SNB-19 CNS = test system: SNB-19 CNS
A549 NSCLC = test system: A549 NSCLC
SR leukemia = test system: SR leukemia
OVCAR-8 ovarian = test system: OVCAR-8 ovarian
SK-OV-3 ovarian = test system: SK-OV-3 ovarian
K-562 leukemia = test system: K-562 leukemia
SW-620 colon = test system: SW-620 colon
SF-539 CNS = test system: SF-539 CNS
HCT-15 colon = test system: HCT-15 colon
SK-MEL-28 melanoma = test system: SK-MEL-28 melanoma
RXF 393 renal = test system: RXF 393 renal
SNB-75 CNS = test system: SNB-75 CNS
SK-MEL-5 melanoma = test system: SK-MEL-5 melanoma
SN12C renal = test system: SN12C renal
HCC-2998 colon = test system: HCC-2998 colon
OVCAR-4 ovarian = test system: OVCAR-4 ovarian

For `CCCc1c(Cl)nc(Cl)nc1Cl`, the TGI (HCT-116 colon) was 22.8 µM, the TGI (RPMI-8226 leukemia) was greater than 33.1 µM and the TGI (NCI-H226 lung) was 0.0913 µM. It also gave a TGI (MDA-MB-435) of 2.44 µM, a TGI (KM12 colon) of 15.8 µM and a TGI (786-0 renal) of 11.2 µM. For the same compound, the TGI (U251 CNS) was 7.95 µM, the TGI (SK-MEL-2 melanoma) was 4.35 µM and the TGI (A498 renal) was 34.7 µM. It also gave a TGI (MDA-N) of 0.548 µM, a TGI (HL-60(TB) leukemia) of 3.01 µM and a TGI (HT29 colon) of 4.02 µM. It also gave a TGI (OVCAR-3 ovarian) of 5.46 µM, a TGI (HS 578T breast) of 27.6 µM and a TGI (UACC-257 melanoma) of 11.1 µM. The TGI (DU-145 prostate) was 9.82 µM, the TGI (ACHN renal) was 10.7 µM and the TGI (MDA-MB-231 breast) was 7.99 µM. It also gave a TGI (SF-295 CNS) of 12.3 µM, a TGI (HOP-62 NSCLC) of 7.79 µM and a TGI (LOX IMVI melanoma) of 0.461 µM. The TGI (NCI-H460 lung) was 12.7 µM, the TGI (OVCAR-5 ovarian) was 17.5 µM and the TGI (PC-3 prostate) was 28.6 µM. It also gave a TGI (NCI-H23 lung) of 4.3 µM, a TGI (UO-31 renal) greater than 55.4 µM and a TGI (IGROV1 ovarian) greater than 37.3 µM. The TGI (COLO 205 colon) was 0.706 µM, the TGI (TK-10 renal) was 18.5 µM and the TGI (MOLT-4 leukemia) was 10.7 µM. The TGI (UACC-62 melanoma) was greater than 100 µM, the TGI (HOP-92 NSCLC) was 11.9 µM and the TGI (NCI/ADR-RES ovarian) was 7.53 µM. For the same compound, the TGI (MCF7 breast) was 16.3 µM, the TGI (MALME-3M melanoma) was 4.95 µM and the TGI (T-47D breast) was 11.7 µM. For the same compound, the TGI (CCRF-CEM leukemia) was 0.0921 µM, the TGI (BT-549 breast) was 4.37 µM and the TGI (M14 melanoma) was greater than 37.9 µM. It also gave a TGI (SF-268 CNS) greater than 68 µM, a TGI (SNB-19 CNS) of 21.1 µM and a TGI (A549 NSCLC) of 24.6 µM. It also gave a TGI (SR leukemia) of 2.15 µM, a TGI (OVCAR-8 ovarian) greater than 19.9 µM and a TGI (SK-OV-3 ovarian) greater than 100 µM. For the same compound, the TGI (K-562 leukemia) was 1.53 µM, the TGI (SW-620 colon) was 12.7 µM and the TGI (SF-539 CNS) was 5.84 µM. It also gave a TGI (HCT-15 colon) of 3.71 µM, a TGI (SK-MEL-28 melanoma) of 1.45 µM and a TGI (RXF 393 renal) of 4.93 µM. For the same compound, the TGI (SNB-75 CNS) was 28.1 µM, the TGI (SK-MEL-5 melanoma) was 2.54 µM and the TGI (SN12C renal) was 5.51 µM. For the same compound, the TGI (HCC-2998 colon) was 15.6 µM and the TGI (OVCAR-4 ovarian) was 26.3 µM.
